Experimental findings from ChEMBL document CHEMBL1129837, “Quantitative structure-activity relationships of benzoyliminothiadiazoline derivatives as angiotensin II receptor antagonists” (Bioorg Med Chem Lett, 1997) are described below.

Structures are written as SMILES.

The experiment has as its target T1, Type-1 angiotensin II receptor B (Rattus norvegicus, UniProt P29089).
T1 sequence (P29089 whole entry): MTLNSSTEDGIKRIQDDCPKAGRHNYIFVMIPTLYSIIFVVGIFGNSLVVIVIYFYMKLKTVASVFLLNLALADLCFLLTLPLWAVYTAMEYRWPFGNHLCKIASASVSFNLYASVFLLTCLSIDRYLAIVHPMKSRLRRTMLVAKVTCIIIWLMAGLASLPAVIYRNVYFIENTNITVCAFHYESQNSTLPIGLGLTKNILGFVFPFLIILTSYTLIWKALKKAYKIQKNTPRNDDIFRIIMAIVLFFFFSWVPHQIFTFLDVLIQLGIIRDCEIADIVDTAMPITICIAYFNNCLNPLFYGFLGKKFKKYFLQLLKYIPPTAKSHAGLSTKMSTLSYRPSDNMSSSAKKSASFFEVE
As to the kind of experiment: Inhibition of binding of [125I]All at the angiotensin II type 1 receptor (AT1 receptor) in rat liver membranes. It counts as cell membranes, Membrane.
Broadly, the Ki is a dissociation constant, usually derived from enzyme kinetics or from competition with a known ligand. A higher Ki goes with a looser hold on the target. On to `CCc1nn(Cc2ccc(-c3ccccc3-c3nn[nH]n3)cc2)/c(=N/C(=O)c2ccccc2C(F)(F)F)s1`, for which the affinity corresponds to a Ki of 6 nM.

Take `Cc1nn(Cc2ccc(-c3ccccc3-c3nn[nH]n3)cc2)/c(=N/C(=O)c2ccccc2Cl)s1`: the Ki was 18 nM.

In turn, `CCCCc1nn(Cc2ccc(-c3ccccc3-c3nn[nH]n3)cc2)/c(=N/C(=O)c2ccccc2Cl)s1` gave an inhibition constant Ki of 200 nM. This Ki lies about 11-fold higher than the previous one.

`CCc1nn(Cc2ccc(-c3ccccc3-c3nn[nH]n3)cc2)/c(=N/C(=O)c2cccc([N+](=O)[O-])c2)s1` had an inhibition constant (Ki) of 141 nM.

The compound `CCc1nn(Cc2ccc(-c3ccccc3-c3nn[nH]n3)cc2)/c(=N/C(=O)c2ccc([N+](=O)[O-])cc2)s1` gave a Ki of 141 nM. That is a sub-micromolar value.

In the case of `CCc1nn(Cc2ccc(-c3ccccc3-c3nn[nH]n3)cc2)/c(=N/C(=O)c2ccccc2[N+](=O)[O-])s1`, the affinity, expressed as Ki, was 3.23 nM.

In the case of `Cc1nn(Cc2ccc(-c3ccccc3-c3nn[nH]n3)cc2)/c(=N/C(=O)c2ccccc2C(=O)O)s1`, the Ki is 2.69 nM.

Turning to `CCc1nn(Cc2ccc(-c3ccccc3-c3nn[nH]n3)cc2)/c(=N/C(=O)c2cccc(Cl)c2)s1`, the inhibition constant Ki was 190 nM.

Compound `CCc1nn(Cc2ccc(-c3ccccc3-c3nn[nH]n3)cc2)/c(=N/C(=O)c2ccc(C)cc2)s1` gave a Ki of 48 nM.

In turn, `CCc1nn(Cc2ccc(-c3ccccc3-c3nn[nH]n3)cc2)/c(=N/C(=O)c2ccc(Br)cc2)s1` had a Ki of 320 nM.

Regarding `CCc1nn(Cc2ccc(-c3ccccc3-c3nn[nH]n3)cc2)/c(=N/C(=O)c2cccc(Br)c2)s1`, the affinity, expressed as Ki, was 300 nM. This Ki and that of the compound before are within 1.5-fold of each other.

On to `CCc1nn(Cc2ccc(-c3ccccc3-c3nn[nH]n3)cc2)/c(=N/C(=O)c2ccccc2Br)s1`, for which the Ki was 3.47 nM.

`CCc1nn(Cc2ccc(-c3ccccc3-c3nn[nH]n3)cc2)/c(=N/C(=O)c2ccccc2OC)s1` gave a Ki of 2.5 nM.

Turning to `CCc1nn(Cc2ccc(-c3ccccc3-c3nn[nH]n3)cc2)/c(=N/C(=O)c2ccccc2F)s1`, affinity was put at a Ki of 7.24 nM. Against the preceding compound, the Ki is about 2.9-fold higher.

Regarding `CCc1nn(Cc2ccc(-c3ccccc3-c3nn[nH]n3)cc2)/c(=N/C(=O)c2cccc(C)c2)s1`, the Ki is 79.4 nM.

Compound `CCc1nn(Cc2ccc(-c3ccccc3-c3nn[nH]n3)cc2)/c(=N/C(=O)c2ccccc2C)s1` had a Ki of 35.9 nM.

Turning to `CCc1nn(Cc2ccc(-c3ccccc3-c3nn[nH]n3)cc2)/c(=N/C(=O)c2cccc(F)c2)s1`, the inhibition constant Ki was 134 nM.

Regarding `CCc1nn(Cc2ccc(-c3ccccc3-c3nn[nH]n3)cc2)/c(=N/C(=O)c2ccccc2)s1`, the inhibition constant (Ki) was 36 nM.

Compound `CCc1nn(Cc2ccc(-c3ccccc3-c3nn[nH]n3)cc2)/c(=N/C(=O)c2cccc(OC)c2)s1` had a Ki of 49 nM.

`CCCc1nn(Cc2ccc(-c3ccccc3-c3nn[nH]n3)cc2)/c(=N/C(=O)c2ccccc2C(=O)O)s1` showed a Ki of 2 nM.

The compound `CCc1nn(Cc2ccc(-c3ccccc3-c3nn[nH]n3)cc2)/c(=N/C(=O)c2ccccc2C(=O)O)s1` had an inhibition constant Ki of 0.619 nM. This Ki lies about 3.2-fold lower than the previous one.

`CCc1nn(Cc2ccc(-c3ccccc3-c3nn[nH]n3)cc2)/c(=N/C(=O)c2ccc(Cl)cc2)s1` had an inhibitory constant (Ki) of 330 nM.

Regarding `CCc1nn(Cc2ccc(-c3ccccc3-c3nn[nH]n3)cc2)/c(=N/C(=O)c2ccc(F)cc2)s1`, the inhibition constant Ki is 102 nM. This Ki is about 3.2-fold lower than that of the compound before.

`CCc1nn(Cc2ccc(-c3ccccc3-c3nn[nH]n3)cc2)/c(=N/C(=O)c2ccccc2I)s1` gave a Ki of 3.86 nM.

For `O=C(/N=c1\sc(C2CC2)nn1Cc1ccc(-c2ccccc2-c2nn[nH]n2)cc1)c1ccccc1Cl`, the inhibition constant Ki is 15.1 nM.

The compound `CCc1nn(Cc2ccc(-c3ccccc3-c3nn[nH]n3)cc2)/c(=N/C(=O)c2ccc(C(F)(F)F)cc2)s1` had an inhibition constant (Ki) of 557 nM.

For `CCc1nn(Cc2ccc(-c3ccccc3-c3nn[nH]n3)cc2)/c(=N/C(=O)c2ccccc2Cl)s1`, the affinity, expressed as Ki, was 3.39 nM.

`CCc1nn(Cc2ccc(-c3ccccc3-c3nn[nH]n3)cc2)/c(=N/C(=O)c2cccc(C(F)(F)F)c2)s1` gave a Ki of 447 nM.

For the compound `CCc1nn(Cc2ccc(-c3ccccc3-c3nn[nH]n3)cc2)/c(=N/C(=O)c2ccc(OC)cc2)s1`, the Ki is 28 nM.

Consider `CCCc1nn(Cc2ccc(-c3ccccc3-c3nn[nH]n3)cc2)/c(=N/C(=O)c2ccccc2Cl)s1`, for which the affinity, expressed as Ki, was 22 nM.
